From ChEMBL document CHEMBL4325928, “Structure-Property Basis for Solving Transporter-Mediated Efflux and Pan-Genotypic Inhibition in HCV NS5B Inhibitors” (ACS Med Chem Lett, 2018) come the findings set out here.

Each structure is given as a SMILES string.

Data set [1] is described as follows: Efflux ratio of permeability from basolateral side to apical side over apical side to basolateral side in human Caco2 cells expressing p-gp at 3 uM incubated for 2 hrs by LC-MS/MS analysis. Type of data set: ADME, cell-based. The settings on record: Caco-2.
Data set [2] in a line: Permeability across apical side to basolateral side in human Caco2 cells expressing p-gp at 3 uM incubated for 2 hrs by LC-MS/MS analysis. Type of data set: ADME, cell-based. To be noted: Caco-2, read-out: permeability. On the technique in general: Caco-2 cells form a polarised layer with tight junctions and transporters.
Data set [3] is described as follows: Permeability of the compound at pH 7.4 by PAMPA. The class given is ADME. To be noted: read-out: permeability. Background: The PAMPA barrier holds no transporters, so it reflects passive diffusion.
Data set [4] is described as follows: Permeability across basolateral side to apical side in human Caco2 cells expressing p-gp at 3 uM incubated for 2 hrs by LC-MS/MS analysis. The class given is ADME, cell-based. To be noted: Caco-2, read-out: permeability.
Data set [5] is described as follows: AUC in cannulated Sprague-Dawley rat at 6 mg/kg, po administered via gastric gavage by LC-MS/MS analysis. The class given is ADME, organism-based. To be noted: in vivo.
Data set [6] can be described thus: Clearance in cannulated Sprague-Dawley rat at 2 mg/kg, iv administered as 10 mins infusion by LC-MS/MS analysis. Type of data set: ADME, organism-based. The settings on record: in vivo.
A short description of data set [7]: Volume of distribution at steady state in cannulated Sprague-Dawley rat at 2 mg/kg, iv administered as 10 mins infusion by LC-MS/MS analysis. Type of data set: ADME, organism-based. To be noted: in vivo, read-out: Vdss.
Data set [8] is described as follows: Cmax in cannulated Sprague-Dawley rat at 6 mg/kg, po administered via gastric gavage by LC-MS/MS analysis. The class given is ADME, organism-based. On the set-up: dose 6 mg/kg, route oral. To be noted: in vivo.
Data set [9] in a line: Half life in cannulated Sprague-Dawley rat at 2 mg/kg, iv administered as 10 mins infusion by LC-MS/MS analysis. The class given is ADME, organism-based. To be noted: in vivo.
Data set [10] in a line: Drug level in cannulated Sprague-Dawley rat liver at 6 mg/kg, po administered via gastric gavage measured after 5 hrs by LC-MS/MS analysis. The class given is ADME, organism-based. To be noted: read-out: Drug uptake.
Data set [11] in a line: Half life in rat liver microsomes. The class given is ADME, Microsome. (In general: Microsomes from liver hold many membrane-bound enzymes, among them those of drug oxidation.)
The nature of data set [12]: Tmax in cannulated Sprague-Dawley rat at 6 mg/kg, po administered via gastric gavage by LC-MS/MS analysis. Type of data set: ADME, organism-based. The settings on record: in vivo.
Data set [13] is described as follows: Half life in human liver microsomes. Type of data set: ADME, Microsome.
Data set [14] is described as follows: Oral bioavailability in cannulated Sprague-Dawley rat at 6 mg/kg administered via gastric gavage by LC-MS/MS analysis. The class given is ADME, organism-based. The settings on record: in vivo.
A short description of data set [15]: Stability in rat liver microsomes assessed as parent compound remaining. The class given is ADME, Microsome.
Data set [16] can be described thus: Stability in human liver microsomes assessed as parent compound remaining. Type of data set: ADME, Microsome.
Data set [17] can be described thus: Drug level in cannulated Sprague-Dawley rat liver at 6 mg/kg, po administered via gastric gavage measured after 24 hrs by LC-MS/MS analysis. The class given is ADME, organism-based. To be noted: read-out: Drug uptake.
Data set [18] can be described thus: Drug level in cannulated Sprague-Dawley rat plasma at 6 mg/kg, po administered via gastric gavage measured after 5 hrs by LC-MS/MS analysis. The class given is ADME, organism-based.

Consider `CCN(C(=O)OC)c1cc2oc(-c3ccc(F)cc3)c(C(=O)NC)c2cc1-c1ccc(OC)c(C(=O)NC2(c3ncccn3)CC2)c1`, for which the efflux ratio at 2 h, 3 µM in [1] amounted to 9.6. Further, the Papp A→B at 2 h, 3 µM in data set [2] stood at 2.4 ×10⁻⁶ cm/s. For the same compound, in [3], the Papp came to 66 ×10⁻⁶ cm/s. In addition, the Papp B→A at 2 h, 3 µM in [4] was determined as 23.2 ×10⁻⁶ cm/s.
`CCN(c1cc2oc(-c3ccc(F)cc3)c(C(=O)NC)c2cc1-c1ccc(OC)c(C(=O)NC2(c3ncccn3)CC2)c1)S(C)(=O)=O`: the AUC in [5] was found to be 0.74 µM·h. For the same compound, the clearance in data set [6] amounted to 60 mL/min/kg. Further, the efflux ratio at 2 h, 3 µM in data set [1] was above 12.4. Also, in [7], the Vd was 14 L/kg. In addition, the Papp A→B at 2 h, 3 µM in data set [2] is below 1.5 ×10⁻⁶ cm/s. This compound had a Cmax in data set [8] of 223 nM. For the same compound, the values for the half-life in [9], in [11] and in data set [13] were 1.6 h, above 2 h and 1.52 h, respectively. Moreover, the concentration at 5 h in [10] was 1180 nM. Besides, the Tmax in [12] was 1.9 h. Besides, the Papp in data set [3] came out at 48.7 ×10⁻⁶ cm/s. Moreover, the bioavailability in data set [14] was found to be 20%. Moreover, in data set [4], the Papp B→A at 2 h, 3 µM is 18.5 ×10⁻⁶ cm/s.
On to `CNC(=O)c1c(-c2ccc(F)cc2)oc2cc(N(CCO)S(C)(=O)=O)c(-c3cccc(C(=O)NC4(c5ccccn5)CC4)c3)cc12`, for which the results for the Stability in data set [15] and in data set [16] were 8.7% and 99%, respectively.
As to `CCN(c1cc2oc(-c3ccc(F)cc3)c(C(=O)NC)c2cc1-c1cc(C)c(OC)c(C(=O)NC2(c3ncccn3)CC2)c1)S(C)(=O)=O`, the efflux ratio at 2 h, 3 µM in data set [1] worked out at 9.8. Besides, in data set [2], the Papp A→B at 2 h, 3 µM came out at 3.3 ×10⁻⁶ cm/s. Also, the Papp in data set [3] is 40.9 ×10⁻⁶ cm/s. For the same compound, in data set [4], the Papp B→A at 2 h, 3 µM was 32.2 ×10⁻⁶ cm/s.
With `CCN(c1cc2oc(-c3ccc(F)cc3)c(C(=O)NC)c2cc1-c1cc(F)c(F)c(C(=O)NC2(c3ncccn3)CC2)c1)S(C)(=O)=O`, the efflux ratio at 2 h, 3 µM in data set [1] worked out at 7.8. In [2], the Papp A→B at 2 h, 3 µM is 7.9 ×10⁻⁶ cm/s. In addition, the Papp in data set [3] was found to be 73.1 ×10⁻⁶ cm/s. In addition, in [4], the Papp B→A at 2 h, 3 µM was found to be 62.3 ×10⁻⁶ cm/s.
`CCNc1cc2oc(-c3ccc(F)cc3)c(C(=O)NC)c2cc1-c1ccc(OC)c(C(=O)NC2(c3ncccn3)CC2)c1` had an AUC in data set [5] of 7.8 µM·h. The same compound showed a clearance in data set [6] of 11 mL/min/kg. Besides, the efflux ratio at 2 h, 3 µM in [1] came out at 0.8. In [7], the Vd was 4 L/kg. For the same compound, in data set [2], the Papp A→B at 2 h, 3 µM amounted to 23.2 ×10⁻⁶ cm/s. The highest level in [8] (Cmax) was 776 nM. For the same compound, the half-life was 4.7 h in data set [9], 0.65 h in data set [11] and 0.6 h in data set [13]. Besides, in data set [10], the concentration at 5 h is 5260 nM. Besides, the Tmax in data set [12] is 5.3 h. The concentration at 24 h in data set [17] amounted to 391 nM. The Papp in [3] was 72 ×10⁻⁶ cm/s. The compound further had a bioavailability in data set [14] of 57%. For the same compound, the Papp B→A at 2 h, 3 µM in [4] is 17.6 ×10⁻⁶ cm/s.
With `CNC(=O)c1c(-c2ccc(F)cc2)oc2cc(N(CCO)S(C)(=O)=O)c(-c3cccc(C(=O)NC4(c5ccccc5)CC4)c3)cc12`, the Stability in data set [15] is recorded as 0.6%; in data set [16] it was 63%.
The matching figures for `CNC(=O)c1c(-c2ccc(F)cc2)oc2ccc(-c3cccc(C(=O)NC4(c5ccccn5)CC4)c3)cc12`: 54% and 91%.
In the case of `CCN(C(C)=O)c1cc2oc(-c3ccc(F)cc3)c(C(=O)NC)c2cc1-c1ccc(OC)c(C(=O)NC2(c3ncccn3)CC2)c1`, the efflux ratio at 2 h, 3 µM in data set [1] is above 20.5. Besides, the Papp A→B at 2 h, 3 µM in data set [2] was below 1.5 ×10⁻⁶ cm/s. Besides, in data set [3], the Papp stood at 46.6 ×10⁻⁶ cm/s. For the same compound, the Papp B→A at 2 h, 3 µM in data set [4] was determined as 30.8 ×10⁻⁶ cm/s.
Regarding `CCN(c1cc2oc(-c3ccc(F)cc3)c(C(=O)NC)c2cc1-c1cc(Cl)c(OC)c(C(=O)NC2(c3ncccn3)CC2)c1)S(C)(=O)=O`, the efflux ratio at 2 h, 3 µM in data set [1] was found to be 2.2. The Papp A→B at 2 h, 3 µM in data set [2] is 5.2 ×10⁻⁶ cm/s. Also, the values for the concentration at 5 h in data set [18] and in [10] were 277 nM and 7180 nM, respectively. The half-life amounted to 0.433 h in data set [11] and 0.232 h in [13]. Besides, in [3], the Papp was determined as 82.1 ×10⁻⁶ cm/s. Moreover, the Papp B→A at 2 h, 3 µM in [4] stood at 11.4 ×10⁻⁶ cm/s.
With `CCN(c1cc2oc(-c3ccc(F)cc3)c(C(=O)NC)c2cc1-c1cccc(C(=O)NC2(c3ncccn3)CC2)c1)S(C)(=O)=O`, the Stability is given as 91% in data set [15] and 100% in data set [16]. The efflux ratio at 2 h, 3 µM in data set [1] is above 8.6. In data set [2], the Papp A→B at 2 h, 3 µM was below 1.5 ×10⁻⁶ cm/s. The half-life in data set [11] was 0.817 h; in data set [13], above 2 h. The Papp B→A at 2 h, 3 µM in data set [4] stood at 13 ×10⁻⁶ cm/s.
In the case of `CCN(C(=O)C(F)(F)F)c1cc2oc(-c3ccc(F)cc3)c(C(=O)NC)c2cc1-c1ccc(OC)c(C(=O)NC2(c3ncccn3)CC2)c1`, the efflux ratio at 2 h, 3 µM in data set [1] stood at 2.7. Besides, the Papp A→B at 2 h, 3 µM in [2] was found to be 4.2 ×10⁻⁶ cm/s. Besides, in data set [3], the Papp amounted to 83.5 ×10⁻⁶ cm/s. Further, the Papp B→A at 2 h, 3 µM in data set [4] is 11.5 ×10⁻⁶ cm/s.
For the compound `CCN(C(=O)N(C)C)c1cc2oc(-c3ccc(F)cc3)c(C(=O)NC)c2cc1-c1ccc(OC)c(C(=O)NC2(c3ncccn3)CC2)c1`, in [1], the efflux ratio at 2 h, 3 µM stood at 24.1. In [2], the Papp A→B at 2 h, 3 µM was found to be 2 ×10⁻⁶ cm/s. Besides, the Papp in data set [3] stood at 57.5 ×10⁻⁶ cm/s. Besides, the Papp B→A at 2 h, 3 µM in [4] came to 47.9 ×10⁻⁶ cm/s.
For the compound `CCN(c1cc2oc(-c3ccc(F)cc3)c(C(=O)NC)c2cc1-c1cc(F)c(OC)c(C(=O)NC2(c3ncccn3)CC2)c1)S(C)(=O)=O`, the efflux ratio at 2 h, 3 µM in [1] turned out to be 13.8. Moreover, the Papp A→B at 2 h, 3 µM in [2] is 2.9 ×10⁻⁶ cm/s. In addition, in data set [3], the Papp was determined as 65.9 ×10⁻⁶ cm/s. Also, the Papp B→A at 2 h, 3 µM in data set [4] was determined as 40.6 ×10⁻⁶ cm/s.

Usually efflux ratio stands for a quotient of directional permeabilities that is used to spot active efflux. The term AUC denotes the area under the concentration-time curve, a measure of exposure. A higher AUC goes with high exposure. One may read the clearance as a measure of how efficiently the substance is removed, as volume per time. In general, Cmax refers to the highest concentration seen after dosing. The half-life is the time needed for the level to fall by half in the phase considered. Read a high half-life as slow decline. Usually Tmax stands for the time at which the peak concentration occurs. The bioavailability is the share of a dose that reaches the circulation, judged against a reference dose that is usually intravenous. Low readings indicate poor availability, high ones good availability.
